This passage reports T/C results from PubChem BioAssay AID248 (DTP/NCI, 2004).

For this assay, the system named is L1210 leukemia ip in BDF1 mice, survival T/C. The experiment in a line: NCI In Vivo Anticancer Drug Screen. Data for tumor model L1210 Leukemia (intraperitoneal) in B6D2F1 (BDF1) mice. The settings on record: endpoint: mean survival time, higher = longer survival. An outline of the steps:
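Transplantable tumor model; survival measured in treated vs vehicle control mice. Value = treated/control.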

Where [1] appears, read: dose: 50.0 mg/kg/injection, schedule: Q01DX009 (ip), vehicle: Klucel (hydroxypropylcellulose) (HPC).
Setting [2] is: dose: 100.0 mg/kg/injection, schedule: Q01DX009 (ip), vehicle: Klucel (hydroxypropylcellulose) (HPC).
Setting [3] is: dose: 200.0 mg/kg/injection, schedule: Q01DX009 (ip), vehicle: Klucel (hydroxypropylcellulose) (HPC).
Setting [4] is: dose: 400.0 mg/kg/injection, schedule: Q01DX009 (ip), vehicle: Klucel (hydroxypropylcellulose) (HPC).
[5] abbreviates: dose: 100.0 mg/kg/injection, schedule: Q01DX001 (ip), vehicle: saline with Tween-80.
[6] abbreviates: dose: 100.0 mg/kg/injection, schedule: Q01DX009 (ip), vehicle: saline with Tween-80.
The mark [7] stands for this setting: dose: 100.0 mg/kg/injection, schedule: Q04DX003 (ip), vehicle: saline with Tween-80.
Setting [8] is: dose: 200.0 mg/kg/injection, schedule: Q01DX001 (ip), vehicle: saline with Tween-80.
[9] abbreviates: dose: 200.0 mg/kg/injection, schedule: Q01DX009 (ip), vehicle: saline with Tween-80.
The mark [10] stands for this setting: dose: 200.0 mg/kg/injection, schedule: Q04DX003 (ip), vehicle: saline with Tween-80.
The mark [11] stands for this setting: dose: 400.0 mg/kg/injection, schedule: Q01DX001 (ip), vehicle: saline with Tween-80.
Setting [12] is: dose: 400.0 mg/kg/injection, schedule: Q01DX009 (ip), vehicle: saline with Tween-80.
[13] abbreviates: dose: 400.0 mg/kg/injection, schedule: Q04DX003 (ip), vehicle: saline with Tween-80.
Where [14] appears, read: dose: 100.0 mg/kg/injection, schedule: Q01DX001 (ip), vehicle: saline.
The mark [15] stands for this setting: dose: 200.0 mg/kg/injection, schedule: Q01DX001 (ip), vehicle: saline.
The mark [16] stands for this setting: dose: 400.0 mg/kg/injection, schedule: Q01DX001 (ip), vehicle: saline.

Several values for one entry are separate records, joined by “and”; a condition that tells them apart may be missing. Equal values may be shown once. Toxic doses and inconclusive results are not listed.

With `CCOC(=O)c1cncc(C(=O)OCC)c1`, the T/C is 100 % of control under setting [1]; 100 % of control under setting [2]; 101 % of control (dose: 100.0 mg/kg/injection, schedule: Q04DX003 (ip), vehicle: Klucel (hydroxypropylcellulose) (HPC)); 104 % of control under setting [3]; 92 % of control (dose: 200.0 mg/kg/injection, schedule: Q04DX003 (ip), vehicle: Klucel (hydroxypropylcellulose) (HPC)); 112 % of control under setting [4]. The T/C (dose: 400.0 mg/kg/injection, schedule: Q04DX003 (ip), vehicle: Klucel (hydroxypropylcellulose) (HPC)) is 100 % of control.

Turning to `O=C(NNc1ccccc1)OCCCl`, the T/C was 95 % of control (dose: 12.5 mg/kg/injection, schedule: Q01DX009 (ip), vehicle: Klucel (hydroxypropylcellulose) (HPC)); 101 % of control (dose: 25.0 mg/kg/injection, schedule: Q01DX009 (ip), vehicle: Klucel (hydroxypropylcellulose) (HPC)); 107 % of control under setting [1].

Regarding `Cn1cnc2c3cccnc3ccc21`, the T/C was 95 % of control (dose: 75.0 mg/kg/injection, schedule: Q01DX001 (ip), vehicle: saline) and 103 % of control (dose: 150.0 mg/kg/injection, schedule: Q01DX001 (ip), vehicle: saline).

Take `COc1ccc(CCNC(=O)c2ccccc2N)cc1OC`: the T/C reads like this: under setting [5], 97 % of control; under setting [6], 90 % of control and 91 % of control; (dose: 100.0 mg/kg/injection, schedule: Q04DX002 (ip), vehicle: saline with Tween-80) 98 % of control; under setting [7], 105 % of control; under setting [8], 98 % of control; under setting [9], 95 % of control and 109 % of control. The T/C was 98 % of control (dose: 200.0 mg/kg/injection, schedule: Q04DX002 (ip), vehicle: saline with Tween-80); 92 % of control under setting [10]; 106 % of control under setting [11]; 90 % of control and 91 % of control under setting [12]; 95 % of control (dose: 400.0 mg/kg/injection, schedule: Q04DX002 (ip), vehicle: saline with Tween-80); 95 % of control under setting [13].

As for `CCOC(=O)c1cnc(NN)nc1Nc1cc(Cl)cc(Cl)c1`, under setting [10], the T/C was 90 % of control.

`N=c1nc(N)nc2c3ccccc3nnn12`: the T/C reads like this: (dose: 75.0 mg/kg/injection, schedule: Q01DX001 (ip), vehicle: other) 105 % of control; (dose: 150.0 mg/kg/injection, schedule: Q01DX001 (ip), vehicle: other) 106 % of control.

As for `CC1C=CC(C(N)C(=O)O)O1` (centres undefined), the T/C under setting [14] was 103 % of control, the T/C under setting [15] was 95 % of control and the T/C under setting [16] was 101 % of control.

Consider `Nc1[nH]nc2nccnc12`, for which the T/C runs as follows: under setting [6], 103 % of control; under setting [7], 96 % of control; under setting [9], 98 % of control; under setting [10], 97 % of control; under setting [12], 95 % of control; under setting [13], 102 % of control.

In the case of `O=C(Nc1cccc2cnccc12)c1ccc(C(=O)Nc2cccc3cnccc23)cc1`, the T/C is 98 % of control under setting [14], 104 % of control under setting [15] and 104 % of control under setting [16].

As for `Nc1nc([Se])c2ncn(C3CC(O)C(CO)O3)c2n1` (centres undefined), the T/C is, setting by setting: (dose: 12.5 mg/kg/injection, schedule: Q01DX009 (ip), vehicle: saline) 196 % of control; (dose: 25.0 mg/kg/injection, schedule: Q01DX005 (ip), vehicle: saline) 150 % of control and 151 % of control; (dose: 25.0 mg/kg/injection, schedule: Q01DX009 (ip), vehicle: saline) 171 % of control; (dose: 50.0 mg/kg/injection, schedule: Q01DX005 (ip), vehicle: saline) 123 % of control; (dose: 50.0 mg/kg/injection, schedule: Q01DX009 (ip), vehicle: saline) 150 % of control.

Consider `CC1=Nc2ccc([N+](=O)[O-])cc2N=C(C)C1`, for which the T/C (dose: 100.0 mg/kg/injection, schedule: Q01DX009 (ip), vehicle: saline) was 95 % of control; the T/C (dose: 100.0 mg/kg/injection, schedule: Q04DX003 (ip), vehicle: saline) is 105 % of control; the T/C (dose: 200.0 mg/kg/injection, schedule: Q01DX009 (ip), vehicle: saline) is 93 % of control; the T/C (dose: 200.0 mg/kg/injection, schedule: Q04DX003 (ip), vehicle: saline) was 96 % of control; the T/C (dose: 400.0 mg/kg/injection, schedule: Q01DX009 (ip), vehicle: saline) was 92 % of control; the T/C (dose: 400.0 mg/kg/injection, schedule: Q04DX003 (ip), vehicle: saline) was 96 % of control.

For `O=C1C=C(NCCc2cnc[nH]2)c2ccccc2C1=O`, the T/C is, setting by setting: under setting [1], 92 % of control; under setting [2], 103 % of control.

In the case of `C=C1CC2OC(=O)C(=C)C2C(OC(=O)c2ccccc2)/C=C(\C)CCC1OC(=O)c1ccccc1` (centres undefined), the T/C runs as follows: (dose: 100.0 mg/kg/injection, schedule: Q04DX002 (ip), vehicle: Klucel (hydroxypropylcellulose) (HPC)) 108 % of control; (dose: 200.0 mg/kg/injection, schedule: Q04DX002 (ip), vehicle: Klucel (hydroxypropylcellulose) (HPC)) 91 % of control; (dose: 400.0 mg/kg/injection, schedule: Q04DX002 (ip), vehicle: Klucel (hydroxypropylcellulose) (HPC)) 97 % of control.

Consider `CN=C(NC)c1ccc(NC(=O)c2cc(C)cc(C(=O)Nc3ccc(C(=NC)NC)cc3)c2)cc1`, for which the T/C was 89 % of control (dose: 1.88 mg/kg/injection, schedule: Q01DX Z (ip), vehicle: saline); 91 % of control (dose: 3.75 mg/kg/injection, schedule: Q01DX Z (ip), vehicle: saline); 91 % of control (dose: 7.5 mg/kg/injection, schedule: Q01DX Z (ip), vehicle: saline); 98 % of control and 107 % of control (dose: 15.0 mg/kg/injection, schedule: Q01DX Z (ip), vehicle: saline); 101 % of control (dose: 30.0 mg/kg/injection, schedule: Q01DX Z (ip), vehicle: saline).

As to `COc1cccc(CC2=C3CCCN(C(=O)c4ccccc4)C3CCC2=O)c1` (centres undefined), the T/C is, setting by setting: (dose: 100.0 mg/kg/injection, schedule: Q01DX009 (ip), vehicle: saline sonified) 98 % of control; (dose: 200.0 mg/kg/injection, schedule: Q01DX009 (ip), vehicle: saline sonified) 96 % of control; (dose: 400.0 mg/kg/injection, schedule: Q01DX009 (ip), vehicle: saline sonified) 96 % of control.

For the compound `Cc1c(O)ccc2ccc(=O)oc12`, the T/C runs as follows: (dose: 100.0 mg/kg/injection, schedule: Q01DX001 (ip), vehicle: carboxymethylcellulose (CMC)) 98 % of control; (dose: 200.0 mg/kg/injection, schedule: Q01DX001 (ip), vehicle: carboxymethylcellulose (CMC)) 90 % of control; (dose: 400.0 mg/kg/injection, schedule: Q01DX001 (ip), vehicle: carboxymethylcellulose (CMC)) 93 % of control.

With `Cc1c(C)c2c(c(C)c1O)CC(CO)CO2` (centres undefined), the T/C is 92 % of control under setting [5], 101 % of control under setting [8] and 87 % of control under setting [11].

Regarding `CCCCCCCCCCCCc1c(C(OC)OC)[nH]c(=S)[nH]c1=O`, the T/C is 94 % of control under setting [6]; 98 % of control under setting [7]; 100 % of control under setting [9]; 96 % of control under setting [10]; 103 % of control under setting [12]; 93 % of control under setting [13].

As to `CNc1ccc(C(=O)NC(CCC(=O)O)C(=O)O)cc1C(F)(F)F` (centres undefined), the T/C by setting is: under setting [2], 98 % of control; under setting [3], 96 % of control; under setting [4], 98 % of control.

As to `CC(C(=O)O)C(NC(=O)OCc1ccccc1)C(=O)O` (centres undefined), the T/C (dose: 100.0 mg/kg/injection, schedule: Q01DX009 (ip), vehicle: other) was 93 % of control; the T/C (dose: 100.0 mg/kg/injection, schedule: Q04DX003 (ip), vehicle: other) was 99 % of control; the T/C (dose: 200.0 mg/kg/injection, schedule: Q01DX009 (ip), vehicle: other) is 91 % of control; the T/C (dose: 200.0 mg/kg/injection, schedule: Q04DX003 (ip), vehicle: other) was 99 % of control; the T/C (dose: 400.0 mg/kg/injection, schedule: Q01DX009 (ip), vehicle: other) is 98 % of control; the T/C (dose: 400.0 mg/kg/injection, schedule: Q04DX003 (ip), vehicle: other) was 98 % of control.
